Reference: patent US20130259929A1, “USE OF A PHOSPHOPEPTIDE ABLE TO BLOCK HER3/P85 INTERACTION FOR THE TREATMENT OF HER2 HYPER-EXPRESSING TUMOURS” (priority 2010, published 2013)
Non-standard residues stand in square brackets, D forms with d. No end group written: not given here. pY = N[C@@H](Cc1ccc(OP(=O)(O)O)cc1)C(=O)O

How the values were obtained:
[1] = target: p85 (Homo sapiens, UniProt P27986); settings: binding to p85; cited from earlier work
[2] = test system: PI3K activity measured as Akt phosphorylation; assay: Akt phosphorylation (Western blot) after peptide transfection; format: cell-based, human
Description: (§1) Peptide transfection. In order to inhibit the p85 and ErbB3 interaction, MCF7, BT474 and MDA-MB-453 cell lines have been transfected using 80, 100, and 180 μg, respectively, of the following phosphopeptides:
(§2) Treatments and lmmunodecorations. […] Briefly the cells have been plated at 5×10^5 concentration in 60 mm plates. […] At the end of the treatment the cells have been lysed with RIPA buffer [150 mM NaCl, 1% NP-40, 0,5% sodium deoxycholate (DOC), 0.1% SDS, 50 mM TrisHCl (pH 8), 1 mM PMSF, 1 mM EGTA, 50 mM NaF, 50 mM Na3VO4 and protease inhibitors (Roche, Milano, IT)] in order to analyze the expression levels of phosphorylated and total ErbB-3, ErbB-2, ERK and HSP-70 proteins. In order to analyze the levels of Akt phosphorylation and expression, the cells have been lysed in NP-40 buffer [1% NP-40, 10% glycerol, 137 mM NaCl, 20 mM TrisHCl (pH 7.4), 50 mM NaF, 1 mM PMSF, 5 mM Na3VO4, protease inhibitors (Roche, Milano, IT)]. Cell lysates have been incubated on ice for 20 minutes and centrifuged at 14000 rpm for 20 minutes. RIPA buffer obtained cell extracts have been boiled for 5 minutes at 95° C., while NP40 buffer lysed samples have been boiled at 65° C. for 5 minutes. Samples have been subjected to SDS-PAGE and transferred on nitrocellulose filters (Bio-Rad, Milan, IT). Then the filters have been incubated with interest antibodies, washed and incubated with specific secondary horse radish peroxidase (HRP) conjugated antibodies. After thorough washing, nitrocellulose peroxidase activity has been detected by chemiluminescence (Lite-blot-Euroclone, Milano, IT)

[3] = test system: MAPK phosphorylation; assay: MAPK (ERK1/2) phosphorylation (Western blot) after peptide transfection; format: cell-based, human; settings: MCF7, BT474 and MDA-MB-453 cells (FIG. 4A); Herceptin where combined
Description: as §1
as §2, with “Samples have been subjected to SDS-PAGE and transferred on nitrocellulose filters (Bio-Rad, Milan, IT). Then the filters have been incubated with interest antibodies, washed and incubated with specific secondary horse radish peroxidase (HRP) conjugated antibodies.” left out

[4] = target: T1, HER3 binding to GST-N-SH2p85 fusion protein (Homo sapiens, UniProt P27986); assay: GST pull-down; settings: lysates of BT474, MCF7 and MDA-MB-453 cells, in vitro (FIG. 2A, FIG. 3)
T1 construct: containing SH2 domains in N-terminal portion of p85 sub-unit
T1 sequence (P27986 333-428 limits assumed): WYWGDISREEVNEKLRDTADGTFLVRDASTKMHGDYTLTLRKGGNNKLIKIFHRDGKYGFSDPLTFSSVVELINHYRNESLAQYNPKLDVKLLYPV
Description: GST pull-down. MCF-7, BT474 and MDA-MB-453 cell lines have been washed 2 times with cold PBS and extracted with lysis buffer [(50 mM Tris HCl (pH 7.4), 250 mM NaCl, 0,1% Triton X-100, 5 mM EDTA, 50 mM NaF, 1 mM PMSF, 5 mM Na3VO4 and 50 mmol/L of protease inhibitors (Roche, Milano, IT)]. After 20 minute ice-cold incubation, the lysates have been clarified by centrifugation at 14000 rpm for 20 minutes. The cellular extracts (1 mg sample) have been incubated for 4 hours at 4° C. in the presence of GST bound gluthatione-agarose beads or GST-p85 fusion protein (kindly supplied by doctor S. Giordano), in the presence or absence of 1257 phosphopeptide or scr peptide used as control. Then the interaction complexes have been washed six times with lysis buffer and subsequently beads eluted using Laemli Buffer 2× [(140 mM SDS, 432 mM Glycerol, 1.6 mM Bromophenol blue, 120 mM Tris HCl (pH 6.8), 8% β-mercaptoethanol)]. The proteins have been separated using 8% SDS-PAGE and transferred on nitrocellulose filter. The filter has been then immunodecorated with anti ErbB3 antibody.
As in FIG. 2A is apparent that 1257 phosphopeptide effectively in vitro binds p85 sub-unit thus inhibiting HER3 receptor binding.

[5] = test system: MCF7/Luc cells; assay: In vivo growth of peptide-transfected MCF7/Luc cells inoculated s.c.; design: species or system SCID mice; settings: s.c. inoculation of transfected MCF7 cells
Description: Xeno-grafts. In vivo tests have been carried out using 40 day old SCID female mice (Harlan Laboratories, Milan, IT). At day 0, animals have been totally anesthetized with intramuscular injection of 400 μg/animal (average weight 25 g) of Zoletil (Virbac) containing 0.12% Xylor (Xylazine), and transplanted subcutaneously (s.c.), in intrascapular mouse region with pellet of […] (1.7 mg/sustained release pellet over 60 days, Innovative Research of America, Sarasota, Fla.). On the next day, 5×10^6 proliferating and scr and 1257 peptide previously transfected, as above described, MCF7 or BT474 cells, have been re-suspended in 0.1 ml of Matrigel (BD Biosciences) and subcutaneously inoculated in each mouse. […] Tumour growth has been monitored two times weekly using calibration along two orthogonal axes: length (L) and […]. The tumour volume (V) has been calculated using the formula V=L*(W2)/2. All the procedures relating to animals and treatment thereof have been carried out according institutional guidelines.
Generation of mammary tumour luminescent cells. Mammary tumour MCF7 cell lines stably transfected using pGL4.51 (luc2/CMV/Neo) expression vector, produced by Promega (Me, IT), have been transfected using scr or 1257 phosphopeptide ([…]×5×10^4 cells/mouse) and after 30 h subcutaneously inoculated in SCID mice (5×10^6 cells/mouse) in 200 μl (1:1 Matrigel: cell suspension in serum free medium). Mice have been in vivo imaged 20′ after inoculation and once weekly over 11 weeks. The animals have been anesthetized, as above reported, and subjected to intraperitoneal injection with 200 μl of luciferin (Caliper, Mi, IT); 10′ after incubation photon emission has been analyzed at 3′ minute exposure using Xenogen Ivis Lumina 2 machine. Growth of these cells has been monitored as reported in xenografts section.
Then it has been verified whether 1257 phosphopeptide was effective also in vivo. To this purpose immunocompromised SCID mice have been used. In the presence of oestrogen tablets, 5×10^6 control cells transfected with scr peptide or transfected with 1257 peptide have been injected subcutaneously between mouse scapulae. In order to verify the viability of phosphopeptide transfected cells in animals we have generated a stable luciferase gene expressing MCF7 cell line (MCF7/Luc).

Chain of p85 (P27986 whole entry): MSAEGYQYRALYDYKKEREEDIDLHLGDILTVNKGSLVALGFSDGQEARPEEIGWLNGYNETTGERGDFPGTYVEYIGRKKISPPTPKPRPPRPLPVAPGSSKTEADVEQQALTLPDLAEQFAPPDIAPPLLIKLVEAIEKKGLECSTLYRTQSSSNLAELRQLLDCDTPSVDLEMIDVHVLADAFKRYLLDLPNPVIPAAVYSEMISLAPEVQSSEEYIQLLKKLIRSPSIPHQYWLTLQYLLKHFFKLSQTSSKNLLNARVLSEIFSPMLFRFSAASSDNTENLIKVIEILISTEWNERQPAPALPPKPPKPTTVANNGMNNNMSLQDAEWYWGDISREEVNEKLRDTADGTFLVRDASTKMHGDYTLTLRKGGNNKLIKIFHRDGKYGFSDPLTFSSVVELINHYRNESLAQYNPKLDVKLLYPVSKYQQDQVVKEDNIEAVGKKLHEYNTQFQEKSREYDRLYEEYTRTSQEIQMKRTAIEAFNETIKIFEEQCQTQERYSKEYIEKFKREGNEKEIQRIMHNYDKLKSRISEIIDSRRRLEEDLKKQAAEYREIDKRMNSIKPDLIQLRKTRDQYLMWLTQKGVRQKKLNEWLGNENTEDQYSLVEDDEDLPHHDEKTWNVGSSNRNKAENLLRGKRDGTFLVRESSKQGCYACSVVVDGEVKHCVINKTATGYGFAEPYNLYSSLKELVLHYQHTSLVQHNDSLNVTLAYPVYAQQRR

Substance | association constant (Ka) [1] | inhibition of PI3K activity measured as inhibition level of Akt phosphorylation ([2]; MCF7 cells, peptide transfection at different doses (FIG. 12)) | MAPK phosphorylation [3] | inhibition of HER3 and p85 SH2 domain binding [4] | time after inoculation at which tumours were calibratable [5] | tumour take ([5]; SCID mice) | phosphorylation of Akt ([2]; MCF7, BT474 and MDA-MB-453 cells (FIG. 4A), Herceptin where combined) | inhibition of Akt phosphorylation ([2]; MCF7 cells, 48 hr after Lipofectamine transfection (FIG. 3))
PTAGTTPDEDpYEYMNRQR (PTAGTTPDED[pY]EYMNRQR; listed as Homo sapiens) [1241 phosphopeptide, second HER3-derived phosphopeptide used for preliminary experiments, reference compound] | 824 | not suitable to remarkably inhibit PI3K activity |  |  |  |  |  | 
PYQMRpYNADTDGERTTEP (PYQMR[pY]NADTDGERTTEP) [scr phosphopeptide, scramble (scr), i.e. not specific, phosphopeptide used as control, reference compound] |  |  | does not result in any effect | the binding is as efficient as in the absence of peptide | three | 100% | does not result in any effect | 
not phosphorylated 1257 peptide: Not phosphorylated 1257 peptide used as further negative control (RDGGGPGGDYAAMGACPA; not fully specified) [reference compound] |  |  |  | does not inhibit p85 and ErbB-3 binding |  |  |  | unable to inhibit Akt phosphorylation
